Values after ≈ are worked out from the molar mass of the structure shown.
Assays:
[1] = HPLC stability upon aerosolization and storage; type: physicochemical; details: capsule (before aerosolization) and NGI stage 4 (after aerosolization) samples
Method: Stability upon aerosolization was assessed using High-Performance Liquid Chromatography (HPLC) by the method described by Lucelia Magalhaes da Silva and Herida Regina Nunes Salgado in Validation of a Stability-Indicating RP-LC Method for the Determination of Tigecycline in Lyophilized Powder, J. Chromatogr. Sci. 51:192-199 (2012). The powder accumulated on Stage 4 (after aerosolization), as well as the capsule (before aerosolization) after running the NGI, was dissolved in a buffer containing 0.015 M oxalic acid and 0.015 M sodium phosphate monobasic at pH 7. The mobile phase used was 75 (0.015 M oxalic acid and 0.015 M sodium phosphate monobasic at pH 7): 25 (Acetonitrile). The flow rate was kept at 1 mL/min and UV absorbance was measured at 245 nm. A forcefully degraded sample (tigecycline left in water for 1 week at RT without protection from light) was also incorporated as a control to assess the ability of the method to detect degradants.
The milled powder was stored for 30 days at 25° C./60% RH and 45° C./75% RH, as specified by the International Council for Harmonization (ICH) intermediate and accelerated stability conditions using sealed amber vials. At the 30-day and 6 month time point, the powder was characterized for its physicochemical properties, stability, and aerosol performance. […]

Calu-3 cells = assay: Cell viability, MTT assay; type: cell-based
Method: Calu-3 cells between passage 14-17 were grown in Dulbecco's Modified Eagle Medium (DMEM)+10% Fetal Bovine Serum (FBS)+1% Non-Essential Amino Acids (NEAA)+1% Penicillin Streptomycin (PS)+1% Sodium pyruvate in a 75 cm^2 flask. The media was changed every other day.
To assess the toxicity of the tigecycline powders, Calu-3 cells were seeded into 96-well tissue culture plates at a seeding density of 9000 cells/well. The cells were cultured overnight in media. […] The powders were dissolved in media and 100 μL of each concentration was added to the wells. Control wells containing only media were also set up. […] […] At 3 hours, MTT reagent/culture media was removed and 150 μl of MTT dissolving solvent was added to the well. The well-plate was wrapped in foil and kept on an electronic shaker for 15 minutes. The absorbance was then read at 590 nm using the Tecan microplate reader (Tecan Global Headquarters, Männedorf, Switzerland).

Calu-3 cell monolayer = assay: Drug permeability across air-liquid interface monolayer; type: in vitro ADME
Method: Calu-3 cells were plated at a cell density of 33,000 cells/well in 24-well transwell inserts on the apical side and 500 μL media was added to the basolateral side. 48 hours after plating the cells, the cells were airlifted (i.e the media from the apical and basolateral side was aspirated and only the basolateral side was replaced with media).
Cell integrity of the Calu-3 monolayer was measured every other day after airlifting. Briefly, the media from the basolateral side was aspirated. 200 μL of Hank's balanced salt solution (HBSS) buffer was added to the apical side and 500 μL of HBSS was added to the basolateral side. The transepithelial electrical resistance (TEER) was measured using an epithelial Voltohmmeter. The short electrode was dipped into the buffer on the apical side and the longer electrode was dipped into the buffer on the basolateral side. Using the measured value the TEER was calculated using equation (2): […]
The permeation experiments were carried out between days 5-7 after airlifting when the TEER values were ˜700Ω which indicates epithelial cell integrity and the absence of a leaky monolayer. The amount of drug transported across the cell layer were measured as follows: Milled and unmilled powders of tigecycline were dissolved in 200 μL of HBSS at a concentration of 10 μM and 20 μM. The media in the basolateral side was replaced by HBSS. 10 μL sample was collected from the basolateral side at the following intervals: 5 min, 15 min, 30 min, 45 min, 60 min, 2 hours, 4 hours, 6 hours, 8 hours, 12 hours, and 24 hours. After each aliquot, 10 μL of HBSS buffer was replaced into the basolateral chamber. This procedure was repeated to measure the permeability from the basolateral side to the apical side where samples were aliquoted from the apical side. The apparent permeability can be calculated as follows:
[formula] • Where • dQ/dt=Concentration flux • A=Surface area • Co=initial concentration

S. maltophilia [2] = assay: Minimum inhibitory concentration, OD 600; type: cell-based, Stenotrophomonas maltophilia
Method: (§1) Stenotrophomonas maltophilia was obtained from American Type Culture Collection (ATCC, Manassas, VA) (ATCC 13637). S. maltophilia dried pellet was reconstituted in nutrient broth and frozen until further use. An inoculation loop was used to collect S. maltophilia from the stock solution and was streaked onto nutrient agar plates. The plates were incubated at 37° C. for 24 hours. At the 24-hour point, an inoculation loop was used to transfer bacteria from the plate to 5 mL of liquid nutrient broth. The bacteria in the liquid medium were left overnight on a shaker at 37° C.
Liquid bacterial culture was prepared as described above. 200 μL of the overnight liquid culture was added to 96 well plates. Varying concentrations of TIG were added to the 96 well plates ranging from 0.12 μg/mL to 64 μg/mL. All TIG concentrations were tested in triplicate. The well plate was allowed to incubate at 37° C. for 24 hours, and the MIC was determined using the OD 600 values.

S. maltophilia biofilm = assay: Biofilm eradication (MBEC), XTT assay; type: cell-based, Stenotrophomonas maltophilia
Method: as §1
S. maltophilia was grown as described above. 200 μL of the bacteria in nutrient broth was added onto 96 well plates for varying amounts of time ranging from 1 day to 5 days. The bacterial biomass at each time point was assessed using crystal violet assay. Briefly, the liquid media was aspirated at each time point, and the wells were washed twice with 200 μL of phosphate-buffered saline (PBS). […] The bound dye was then solubilized in 33% v/v acetic acid, and the absorbance was measured at 595 nm. […]
200 μL of this standardized culture was added to 96 well plates and allowed to grow overnight at 37° C. […] At 24 hours, the viability of the bacteria was evaluated using the XTT assay. […] After 3 hours, the absorbance was measured at 490 nm.

Mycobacterium abscessus = assay: In vitro efficacy (MIC) against Mycobacterium abscessus; type: cell-based; details: Mycobacteroides abscessus, Mab in Middlebrook 7H9 broth; read-out: minimal inhibitory concentration (MIC)
Method: Mab was cultured in Middlebrook 7H9 liquid broth for 48 hours. 100 μL of inoculum was then added to 96 well plate with 50 μL of different concentrations of Tigecycline (0.1 to 240 μg/mL) (FIG. 3).

S. maltophilia [3] = details: cited from earlier work
[4] = Geometric particle size distribution, HELOS laser diffraction with RODOS dispersion; type: physicochemical; details: Avg.
Method: HELOS laser diffraction instrument (Sympatec Americas, Pennington, NJ) using the RODOS dispersion feature was used to assess the geometric particle size distribution of both the milled and unmilled powders. The particle size distribution was measured at different pressures from 0.5-3 bar to analyze the effect of dispersion pressure on particle deaggregation. Measurements that were between 5% and 25% optical density were averaged to determine particle size distribution.

[5] = True density, helium multipycnometer; type: physicochemical
Method: The true density of the processed powders was measured using a helium multipycnometer (Quantachrome Instruments, Boynton Beach, FL) with a micro-sample cell. The sample cell was filled to at least 75% of the total volume with milled or unmilled tigecycline powder. Using equation (1), the pressure of both the reference cell (P1) and sample cell (P2) was determined, and the true volume of the sample was calculated as follows:
For the micro-sample cell utilized, Vc was calibrated at 11.76156 cm^3 and VR=6.34216 cm^3. The sample weight was divided by the measured true volume to obtain the true density. Measurements were repeated until the standard deviation of ten consecutive true density measurements was less than 0.01 g/mL.

[6] = In vitro aerosol performance, Next Generation Impactor (NGI); type: physicochemical; details: for Emitted Dose / Emitted Fraction / GSD / MMAD / RF (<5 μm): 4 kPa; for RF (<5 μm): percent of total dose
Method: The in vitro aerosol performance of the milled and unmilled powders was assessed using Next Generation Impactor (NGI) with a low and high resistance DPI (RS01 Monodose DPI (RS01 DPI; Plastiape). About 10 mg of the powder was added to size 3 hydroxypropyl methylcellulose (HPMC) capsules and the analysis was performed for a length of time sufficient to draw 4 L of air through the NGI, as per USP requirements. The pressure drop across the system was equivalent to either 4 kPa or 1 kPa. The flow rates required across the pressure drop to draw 4 L of air through the NGI, as per USP requirements, were 93 L/min for 4 kPa and 47.6 L/min for 1 kPa. The aerosol performance was compared between the low resistance device and the high resistance device. Also, the performance of the Plastiape devices was compared to that of Handihaler, a commercially used DPI. TIG deposited in each stage was dissolved in a buffer containing 0.015 M oxalic acid and 0.015 M sodium phosphate monobasic at pH 7 and quantified using a UV-Visible spectrophotometer (Tecan Systems, Inc., San Jose, CA, USA) at 245 nm. The aerodynamic particle size metrics that were calculated include emitted dose (ED), emitted fraction (EF), the respiratory fraction (RF), fine particle dose (FPD), fine particle fraction (FPF), mass median aerodynamic diameter (MMAD), and geometric standard deviation (GSD). […]

[7] = Water content by thermogravimetric analysis (TGA); type: physicochemical; details: baseline
Method: The water content of the powders was assessed using thermogravimetric analysis (TGA). About 5 mg of powder was loaded into a 70 μL alumina crucible. The samples were heated from 35-350° C. at a rate of 10° C./min.
(§2) The milled powder was stored for 30 days at 25° C./60% RH and 45° C./75% RH, as specified by the International Council for Harmonization (ICH) intermediate and accelerated stability conditions using sealed amber vials. At the 30-day and 6 month time point, the powder was characterized for its physicochemical properties, stability, and aerosol performance. The results obtained from day 30 and 6 months were compared to baseline measurements to declare storage stability.

[8] = Water sorption by dynamic vapor sorption (DVS); type: physicochemical; details: baseline
Method: Dynamic vapor sorption (DVS) analysis of the powders was performed using an Automated Water Sorption Analyzer (Surface Measurement Systems, London, UK). Briefly, 5-10 mg of milled and unmilled TIG powder was used as the sample. The samples were allowed to equilibrate under nitrogen until dm/dt<0.002%. Water sorption was analyzed as 10 steps from 0% relative humidity (RH) to 100% RH where step dm/dt was set at 0.075% at 10% increments in RH.
as §2

## CN(C)c1cc(NC(=O)CNC(C)(C)C)c(O)c2c1C[C@H]1C[C@H]3[C@H](N(C)C)C(O)=C(C(N)=O)C(=O)[C@@]3(O)C(O)=C1C2=O [Tigecycline, tigecycline]
[1]
  degradation peaks in HPLC chromatograms: none of the degradation peaks were observed
Calu-3 cells; 5 mM and 7.5 mM, 4-hour and 8-hour point
  effect on Calu-3 cell viability: significant cell death
Calu-3 cells; 4-hour and 8-hour point, submerged culture
  concentration up to which Calu-3 cells were viable: 2500 µM
Calu-3 cells; 12-hour point
  maximum concentration that allowed the cells to maintain their viability: 125 µM
Calu-3 cells; 24 hours
  maximum concentration that allowed the cells to maintain their viability: 25 µM
Calu-3 cell monolayer; apical to basolateral, across a 12-hour time point, HPLC limit of detection 1 μM
  tigecycline permeated through the cell monolayer: less than 1 μM
Calu-3 cell monolayer; at the end of the experiment
  drug remaining in the apical (donor) side: ~100%
Calu-3 cell monolayer; basolateral to apical direction
  permeability across the cell monolayer: impermeability
S. maltophilia [2]; 0.1 μg/mL and 0.25 μg/mL
  inhibition of growth of S. maltophilia: failed to inhibit bacterial growth
S. maltophilia [2]; 0.12 and 0.25 μg/mL
  OD 600 value normalized to control: ~1
S. maltophilia [2]; Stenotrophomonas maltophilia, 24 hours, OD 600, read-out: Minimum Inhibitory Concentrations (MIC)
  MIC: 0.5 µg/mL (≈ 0.854 µM)
S. maltophilia [2]; concentrations >0.5 μg/mL
  OD 600 values versus control: significantly lower than that of control
S. maltophilia [2]; concentrations equal to or greater than 0.5 μg/mL
  inhibition of growth of S. maltophilia: completely
S. maltophilia biofilm; concentrations above 0.5 μM, 24 hours
  inhibition of biofilm formation: ~85%
S. maltophilia biofilm; concentrations lower than 0.5 μM
  inhibition of S. maltophilia biofilm formation: could not effectively inhibit
Mycobacterium abscessus
  MIC: > 4 µg/mL
S. maltophilia [3]
  susceptibility of S. maltophilia: more than 90%

## CN(C)c1cc(NC(=O)CNC(C)(C)C)c(O)c2c1C[C@H]1C[C@H]3[C@H](N(C)C)C(O)=C(C(N)=O)C(=O)[C@@]3(O)C(O)=C1C2=O [Unmilled tigecycline, tigecycline]
[4]; dispersing pressure 0.5 bar
  Dv90: 18.38 μm
[4]; dispersing pressure 1 bar
  Dv90: 16.29 μm
[4]; dispersing pressure 2 bar
  Dv90: 10.79 μm
[4]; dispersing pressure 3 bar
  Dv90: 9.49 μm
[4]; dispersing pressure 3 bar, listed as unmilled powders
  Dv90: 9.48 μm
[5]
  True Density: 1.282 ± 0.0004 g/mL
[6]; Handihaler
  Emitted Dose: 7.66 ± 5.11 mg
  Emitted Fraction: 64.60 ± 0.23%
  GSD: 1.13 ± 0.11
  MMAD: 8.27 ± 1.41 μm
  RF (<5 μm): 16.44 ± 2.12%
[6]; LR Plastiape
  Emitted Dose: 8.48 ± 0.25 mg
  Emitted Fraction: 90.20 ± 0.27%
  GSD: 1.25 ± 0.01
  RF (<5 μm): 28.59 ± 1.56%
[6]; LR Plastiape, listed as Unmilled
  MMAD: 5.73 ± 0.52 μm
[6]; LR Plastiape, listed as unmilled tigecycline
  MMAD: 5.73±0.52 μm
[6]; pressure drop of 4 kPa
  emitted dose deposited in the capsule, device, throat and early NGI stages: > 65%
[6]; pressure drop of 4 kPa, before storage
  Fine Particle Dose (FPD): 2.57 ± 0.06 mg
[6]; pressure drop of 4 kPa, before storage, particles below 5 μm with respect to emitted dose
  fine particle fraction (FPF): 31.70±1.83%
[7]
  Water content: negligible
[8]
  hygroscopicity: not hygroscopic

Reference: US20250268829A1, “INHALED ANTIBACTERIAL FORMULATIONS FOR TREATING LUNG INFECTIONS” (Board of Regents, The University of Texas System, priority 2022, published 2025)
